Results reported in patent US20220241249A1, “PHARMACEUTICAL COMPOSITION AND KIT CONTAINING NOVEL PENAM DERIVATIVE OR SALT THEREOF AND ONE OR MORE COMPOUNDS SELECTED FROM beta-LACTAMASE INHIBITORY COMPOUND AND ANTIBACTERIAL COMPOUND OR SALTS THEREOF” (priority 2019, published 2022).
Converted amounts (≈) assume the structure as drawn.

How the values were obtained:
Assay in all cases: Antibacterial activity evaluation test, MIC by broth microdilution (CLSI)
Type in all cases: cell-based
[1] = tested on: AmpC-derepressed Pseudomonas aeruginosa mutant strain (S-3028); details: for MIC: Pseudomonas aeruginosa
Experimental: (§1) The minimum inhibitory concentration (MIC) was measured according to the Clinical and Laboratory Standards Institute (CLSI) standard method by using the following broth microdilution method.
(§2) As bacteria, a Pseudomonas aeruginosa strain ATCC27853, an AmpC-derepressed Pseudomonas aeruginosa mutant strain (S-3028), an IMP-1-containing Pseudomonas aeruginosa strain (S-2838), a VIM-2-containing Pseudomonas aeruginosa strain (S-3779), a GES-19 and GES-20-containing Pseudomonas aeruginosa strain (S-3759), a CTX-M-15-containing Escherichia coli strain (TK-1747), a KPC-2-containing Klebsiella pneumoniae strain (Y-995), an OXA-48-containing Klebsiella pneumoniae strain (Y-1062), and an NDM-1-containing Klebsiella pneumoniae strain (Y-1007) were used. The test bacterial cells that had been cultured overnight on a Mueller Hinton agar medium were scraped off, suspended at a density equivalent to 0.5 McFarland standard, and diluted 10-fold, thereby obtaining an inoculum. A cation-adjusted Mueller Hinton medium containing a test compound was inoculated with 0.005 mL of the inoculum, and the cells were cultured at 35° C. for 16 to 20 hours. The minimum drug concentration at which the growth of bacteria was not visually observed was defined as MIC (μg/mL).
(§3) An antibacterial activity evaluation test was performed in the same manner as in Test Example 1.

[2] = tested on: CTX-M-15-containing Escherichia coli strain (TK-1747); details: for MIC: Escherichia coli
Experimental: as §1, §2, §3

[3] = tested on: GES-19 and GES-20-containing Pseudomonas aeruginosa strain (S-3759); details: for MIC: Pseudomonas aeruginosa
Experimental: as §1, §2, §3

[4] = tested on: IMP-1-containing Pseudomonas aeruginosa strain (S-2838); details: for MIC: Pseudomonas aeruginosa
Experimental: as §1, §2, §3

[5] = tested on: KPC-2-containing Klebsiella pneumoniae strain (Y-995); details: for MIC: Klebsiella pneumoniae
Experimental: as §1, §2, §3

[6] = tested on: NDM-1-containing Klebsiella pneumoniae strain (Y-1007); details: for MIC: Klebsiella pneumoniae
Experimental: as §1, §2, §3

[7] = tested on: OXA-48-containing Klebsiella pneumoniae strain (Y-1062); details: for MIC: Klebsiella pneumoniae
Experimental: as §1, §2, §3

[8] = tested on: Pseudomonas aeruginosa strain ATCC27853; details: Pseudomonas aeruginosa, ATCC27853
Experimental: as §1, §2, §3

[9] = tested on: VIM-2-containing Pseudomonas aeruginosa strain (S-3779); details: for MIC: Pseudomonas aeruginosa
Experimental: as §1, §2, §3

Compound	MIC [1]	MIC [2]	MIC [3]	MIC [4]	MIC [5]	MIC [6]	MIC [7]	MIC [8]	MIC [9]	Antibacterial activity (MIC) Pseudomonas aeruginosa S-3028 [1]	Antibacterial activity (MIC) Escherichia coli TK-1747 [2]	Antibacterial activity (MIC) Pseudomonas aeruginosa S-3759 [3]	Antibacterial activity (MIC) Pseudomonas aeruginosa S-2838 [4]	Antibacterial activity (MIC) Klebsiella pneumoniae Y-995 [5]	Antibacterial activity (MIC) Klebsiella pneumoniae Y-1007 [6]	Antibacterial activity (MIC) Klebsiella pneumoniae Y-1062 [7]	Antibacterial activity (MIC) Pseudomonas aeruginosa ATCC 27853 [8]	Antibacterial activity (MIC) Pseudomonas aeruginosa S-3779 [9]
CC(C)(O/N=C(\C(=O)NC1C(=O)N2C[C@@](C(=O)O)(N3CCN(NC(=O)C(=O)NCCNC(=O)C(=O)c4ccc(O)c(O)c4Cl)C3=O)S[C@H]12)c1csc(N)n1)C(=O)O (stereo partly drawn) [Example 121, (3R,5R,6R)-6-((Z)-2-(2-aminothiazol-4-yl)-2-(((2-carboxypropan-2-yl)oxy)imino)aceta-mido)-3-(3-(2-((2-(2-(2-chloro-3,4-dihydroxy-phenyl)-2-oxoaceta-mido)ethyl)amino)-2-oxoacetamido)-2-oxo-imidazolidin-1-yl)-7-oxo-4-thia-1-azabicyclo-[3.2.0]heptane-3-carbox-ylic acid]	2 µg/mL (≈ 2.34 µM)	< 0.06 µg/mL	2 µg/mL (≈ 2.34 µM)	4 µg/mL (≈ 4.68 µM)	0.25 µg/mL (≈ 0.292 µM)	0.12 µg/mL (≈ 0.14 µM)	0.5 µg/mL (≈ 0.585 µM)	2 µg/mL (≈ 2.34 µM)	1 µg/mL (≈ 1.17 µM)									
CC(C)(O/N=C(\C(=O)NC1C(=O)N2C[C@@](C(=O)O)(N3CCN(NC(=O)C(=O)NNC(=O)C(=O)c4ccc(O)c(O)c4Cl)C3=O)S[C@H]12)c1nc(N)sc1Cl)C(=O)O (stereo partly drawn) [Example 136, (3R,5R,6R)-6-((Z)-2-(2-amino-5-chlorothia-zol-4-yl)-2-(((2-carboxy-propan-2-yl)oxy)imino)-acetamido)-3-(3-(2-(2-(2-(2-chloro-3,4-dihydroxyphenyl)-2-oxoacetyl)hydrizinyl)-2-oxoacetamido)-2-oxoimidazolidin-1-yl)-7-oxo-4-thia-1-aza-bicyclo[3.2.0]heptane-3-carboxylic acid]	0.12 µg/mL (≈ 0.139 µM)	< 0.06 µg/mL	0.5 µg/mL (≈ 0.58 µM)	0.12 µg/mL (≈ 0.139 µM)	0.25 µg/mL (≈ 0.29 µM)	0.12 µg/mL (≈ 0.139 µM)	0.12 µg/mL (≈ 0.139 µM)	0.5 µg/mL (≈ 0.58 µM)	0.5 µg/mL (≈ 0.58 µM)									
CC(C)(O/N=C(\C(=O)N[C@@H]1C(=O)N2C[C@@](C(=O)O)(n3nnc(CNC(=O)c4ccc(O)c(O)c4Cl)n3)S[C@H]12)c1csc(N)n1)C(=O)O [Example 141, (3R,5R,6R)-6-((Z)-2-(2-aminothiazol-4-yl)-2-(((2-carboxypropan-2-yl)oxy)imino)acetamido)-3-(5-((2-chloro-3,4-dihydroxybenzamido)methyl)-2H-tetrazol-2-yl)-7-oxo-4-thia-1-azabicyclo[3.2.0]heptane-3-carboxylic acid]	0.5 µg/mL (≈ 0.703 µM)	0.5 µg/mL (≈ 0.703 µM)	4 µg/mL (≈ 5.63 µM)	0.25 µg/mL (≈ 0.352 µM)	> 32 µg/mL	0.25 µg/mL (≈ 0.352 µM)	1 µg/mL (≈ 1.41 µM)	1 µg/mL (≈ 1.41 µM)	1 µg/mL (≈ 1.41 µM)									
CC(C)(O/N=C(\C(=O)NC1C(=O)N2C[C@@](C(=O)O)(N3CCN(NC(=O)C(=O)c4cc(O)c(O)cc4F)C3=O)S[C@H]12)c1csc(N)n1)C(=O)O (stereo partly drawn) [Example 147, (3R,5R,6R)-6-((Z)-2-(2-aminothiazol-4-yl)-2-(((2-carboxypropan-2-yl)oxy)imino)aceta-mido)-3-(3-(2-(2-fluoro-4,5-dihydroxy-phenyl)-2-oxoaceta-mido)-2-oxoimidazol-idin-1-yl)-7-oxo-4-thia-1-azabicyclo[3.2.0]-heptane-3-carboxylic acid]										0.5 µg/mL	1 µg/mL	1 µg/mL	4 µg/mL	0.25 µg/mL	< 0.06 µg/mL	4 µg/mL	1 µg/mL	1 µg/mL
CC(C)(O/N=C(\C(=O)NC1C(=O)N2C[C@@](C(=O)O)(N3CCN(NC(=O)NNC(=O)C(=O)c4ccc(O)c(O)c4Cl)C3=O)S[C@H]12)c1csc(N)n1)C(=O)O (stereo partly drawn) [Example 153]										0.12 µg/mL	0.5 µg/mL	2 µg/mL	0.5 µg/mL	0.25 µg/mL	< 0.06 µg/mL	4 µg/mL	0.5 µg/mL	1 µg/mL
